Laboratory results taken from PubChem BioAssay AID256 (DTP/NCI, 2004).
Where “and” joins values, the source holds several entries; their conditions need not be identical. Equal values may be shown once. Toxic doses and inconclusive results are not listed. The calls were made as follows: active = survival T/C of 150% or more; inactive = T/C below 125% in these data.

Tested on: CD2F1 mice, L1210 leukemia ip, survival T/C
Assay: NCI In Vivo Anticancer Drug Screen. Data for tumor model L1210 Leukemia (intraperitoneal) in CD2F1 (CDF1) mice
Settings: higher = longer survival
In short: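 Read-out first: treated-group measurement over vehicle-control measurement, expressed as a ratio. Animals bore a transplanted tumor line and were dosed with compound or vehicle.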

[1] = endpoint: mean survival time, dose: 25.0 mg/kg/injection, schedule: Q01DX009 (ip), vehicle: saline with Tween-80
[2] = endpoint: mean survival time, dose: 50.0 mg/kg/injection, schedule: Q01DX009 (ip), vehicle: saline with Tween-80
[3] = endpoint: mean survival time, dose: 100.0 mg/kg/injection, schedule: Q01DX009 (ip), vehicle: saline with Tween-80
[4] = endpoint: mean survival time, dose: 200.0 mg/kg/injection, schedule: Q01DX009 (ip), vehicle: saline with Tween-80
[5] = endpoint: mean survival time, dose: 400.0 mg/kg/injection, schedule: Q01DX009 (ip), vehicle: saline with Tween-80
[6] = endpoint: mean survival time, dose: 100.0 mg/kg/injection, schedule: Q04DX003 (ip), vehicle: saline with Tween-80
[7] = endpoint: mean survival time, dose: 100.0 mg/kg/injection, schedule: Q04DX003 (ip), vehicle: saline
[8] = endpoint: mean survival time, dose: 200.0 mg/kg/injection, schedule: Q04DX003 (ip), vehicle: saline
[9] = endpoint: mean survival time, dose: 200.0 mg/kg/injection, schedule: Q04DX003 (ip), vehicle: saline with Tween-80
[10] = endpoint: mean survival time, dose: 100.0 mg/kg/injection, schedule: Q01DX001 (ip), vehicle: saline sonified
[11] = endpoint: mean survival time, dose: 200.0 mg/kg/injection, schedule: Q01DX001 (ip), vehicle: saline sonified
[12] = endpoint: mean survival time, dose: 400.0 mg/kg/injection, schedule: Q01DX001 (ip), vehicle: saline sonified
[13] = endpoint: mean survival time, dose: 100.0 mg/kg/injection, schedule: Q01DX001 (ip), vehicle: saline with Tween-80
[14] = endpoint: mean survival time, dose: 200.0 mg/kg/injection, schedule: Q01DX001 (ip), vehicle: saline with Tween-80
[15] = endpoint: mean survival time, dose: 400.0 mg/kg/injection, schedule: Q01DX001 (ip), vehicle: saline with Tween-80
[16] = endpoint: mean survival time, dose: 400.0 mg/kg/injection, schedule: Q04DX003 (ip), vehicle: saline with Tween-80

Measured: T/C

NC(=S)N/N=C\c1ncccc1OCc1cccc(N)c1
inactive: endpoint: mean survival time, dose: 12.5 mg/kg/injection, schedule: Q01DX009 (ip), vehicle: distilled water + Tween-80 104 % of control | endpoint: mean survival time, dose: 12.5 mg/kg/injection, schedule: Q01DX009 (ip), vehicle: saline with Tween-80 100 % of control | endpoint: mean survival time, dose: 25.0 mg/kg/injection, schedule: Q01DX009 (ip), vehicle: distilled water + Tween-80 113 % of control and 104 % of control | [1] 116 % of control and 100 % of control and 107 % of control | endpoint: mean survival time, dose: 50.0 mg/kg/injection, schedule: Q01DX009 (ip), vehicle: distilled water + Tween-80 119 % of control and 111 % of control | [2] 101 % of control and 103 % of control and 110 % of control | endpoint: mean survival time, dose: 100.0 mg/kg/injection, schedule: Q01DX009 (ip), vehicle: distilled water + Tween-80 113 % of control and 119 % of control | [3] 117 % of control and 100 % of control and 105 % of control | endpoint: mean survival time, dose: 200.0 mg/kg/injection, schedule: Q01DX009 (ip), vehicle: distilled water + Tween-80 122 % of control | [4] 114 % of control and 117 % of control and 108 % of control | endpoint: mean survival time, dose: 400.0 mg/kg/injection, schedule: Q01DX009 (ip), vehicle: distilled water + Tween-80 117 % of control | [5] 115 % of control and 108 % of control | endpoint: median survival time, dose: 50.0 mg/kg/injection, schedule: Q01DX009 (ip), vehicle: distilled water + Tween-80 109 % of control | endpoint: median survival time, dose: 100.0 mg/kg/injection, schedule: Q01DX009 (ip), vehicle: distilled water + Tween-80 115 % of control | endpoint: median survival time, dose: 200.0 mg/kg/injection, schedule: Q01DX009 (ip), vehicle: distilled water + Tween-80 118 % of control | endpoint: median survival time, dose: 400.0 mg/kg/injection, schedule: Q01DX009 (ip), vehicle: distilled water + Tween-80 124 % of control

CSCCC(C)(C)C
inactive: endpoint: mean survival time, dose: 75.0 mg/kg/injection, schedule: Q01DX001 (ip), vehicle: saline 103 % of control

O=c1cc(CCl)n2cnc3c(ncn3C3OC(CO)C(O)C3O)c2n1 (centres undefined)
inactive: endpoint: median survival time, dose: 12.5 mg/kg/injection, schedule: Q01DX005 (ip), vehicle: saline with Tween-80 103 % of control | endpoint: median survival time, dose: 25.0 mg/kg/injection, schedule: Q01DX005 (ip), vehicle: saline with Tween-80 102 % of control | endpoint: median survival time, dose: 50.0 mg/kg/injection, schedule: Q01DX005 (ip), vehicle: saline with Tween-80 96 % of control | endpoint: median survival time, dose: 100.0 mg/kg/injection, schedule: Q01DX005 (ip), vehicle: saline with Tween-80 104 % of control | endpoint: median survival time, dose: 200.0 mg/kg/injection, schedule: Q01DX005 (ip), vehicle: saline with Tween-80 98 % of control

C=CCNC(=O)C[n+]1cccc(C(=O)Nc2ccc(Cl)cc2)c1
inactive: [1] 97 % of control | [2] 96 % of control | [3] 102 % of control | [6] 107 % of control

Cc1cc(N=CN(C)C)c2ccccc2n1
inactive: endpoint: mean survival time, dose: 3.12 mg/kg/injection, schedule: Q01DX009 (ip), vehicle: other 106 % of control | endpoint: mean survival time, dose: 6.25 mg/kg/injection, schedule: Q01DX009 (ip), vehicle: other 100 % of control | endpoint: mean survival time, dose: 12.5 mg/kg/injection, schedule: Q01DX009 (ip), vehicle: other 100 % of control | endpoint: mean survival time, dose: 25.0 mg/kg/injection, schedule: Q01DX009 (ip), vehicle: other 106 % of control and 107 % of control

CC(C)[N-]C(C)C.CC(C)[N-]C(C)C.[Cl][Pt+2][Cl]
inactive: endpoint: mean survival time, dose: 10.0 mg/kg/injection, schedule: Q04DX003 (ip), vehicle: saline with Tween-80 102 % of control | endpoint: mean survival time, dose: 20.0 mg/kg/injection, schedule: Q04DX003 (ip), vehicle: saline with Tween-80 97 % of control | endpoint: mean survival time, dose: 40.0 mg/kg/injection, schedule: Q04DX003 (ip), vehicle: saline with Tween-80 105 % of control | endpoint: mean survival time, dose: 80.0 mg/kg/injection, schedule: Q04DX003 (ip), vehicle: saline with Tween-80 97 % of control | endpoint: mean survival time, dose: 160.0 mg/kg/injection, schedule: Q04DX003 (ip), vehicle: saline with Tween-80 97 % of control

CCCCNC(C)(C)C(SS)c1ccc(Cl)cc1 (centres undefined)
inactive: [7] 94 % of control | [8] 105 % of control

N#C/C(=C\c1ccc(-c2ccccc2)cc1)c1ccc(Cl)cc1
inactive: [9] 87 % of control

ClC1(Cl)C2CCCCCCC21 (centres undefined)
inactive: [10] 95 % of control | endpoint: mean survival time, dose: 100.0 mg/kg/injection, schedule: Q01DX009 (ip), vehicle: saline sonified 103 % of control | endpoint: mean survival time, dose: 100.0 mg/kg/injection, schedule: Q04DX002 (ip), vehicle: saline with Tween-80 91 % of control | [11] 105 % of control | endpoint: mean survival time, dose: 200.0 mg/kg/injection, schedule: Q01DX009 (ip), vehicle: saline sonified 101 % of control | endpoint: mean survival time, dose: 200.0 mg/kg/injection, schedule: Q04DX002 (ip), vehicle: saline with Tween-80 95 % of control | [12] 100 % of control | endpoint: mean survival time, dose: 400.0 mg/kg/injection, schedule: Q01DX009 (ip), vehicle: saline sonified 103 % of control

COCCOCCOc1cc(-c2c(OCCOCCOC)ccc3ccccc23)c2ccccc2c1
inactive: [13] 100 % of control | [14] 100 % of control | [15] 100 % of control

CNC(=O)NC1C(CO)OC2OC(C)(C)OC21 (centres undefined)
inactive: [7] 96 % of control | [8] 94 % of control | endpoint: mean survival time, dose: 400.0 mg/kg/injection, schedule: Q04DX003 (ip), vehicle: saline 96 % of control

CCOC(=O)/C=C/C(C(=O)OCC)C(=O)OCC
inactive: [6] 103 % of control | [9] 97 % of control | [16] 101 % of control

O=c1[nH]c2cnn(-c3ccccc3)c2[nH]1
inactive: [13] 97 % of control | [14] 97 % of control | [15] 93 % of control

CON(C)CCOC(=O)c1ccc([N+](=O)[O-])cc1
inactive: [13] 100 % of control | [14] 107 % of control | [15] 105 % of control

CCCCCC(=O)COCC
inactive: [6] 103 % of control | [9] 91 % of control | [16] 103 % of control

Cc1ccc(NNC(N)=O)cc1
inactive: endpoint: mean survival time, dose: 25.0 mg/kg/injection, schedule: Q01DX001 (ip), vehicle: Klucel (hydroxypropylcellulose) (HPC) 104 % of control | endpoint: mean survival time, dose: 50.0 mg/kg/injection, schedule: Q01DX001 (ip), vehicle: Klucel (hydroxypropylcellulose) (HPC) 93 % of control | endpoint: mean survival time, dose: 100.0 mg/kg/injection, schedule: Q01DX001 (ip), vehicle: Klucel (hydroxypropylcellulose) (HPC) 89 % of control

O=S(=O)([O][Hg][CH2]C1Cc2ccccc2O1)[O][Hg][CH2]C1Cc2ccccc2O1 (centres undefined)
inactive: endpoint: mean survival time, dose: 6.25 mg/kg/injection, schedule: Q01DX009 (ip), vehicle: Klucel (hydroxypropylcellulose) (HPC) 95 % of control | endpoint: mean survival time, dose: 12.5 mg/kg/injection, schedule: Q01DX009 (ip), vehicle: Klucel (hydroxypropylcellulose) (HPC) 92 % of control | endpoint: mean survival time, dose: 25.0 mg/kg/injection, schedule: Q01DX009 (ip), vehicle: Klucel (hydroxypropylcellulose) (HPC) 96 % of control | endpoint: median survival time, dose: 6.25 mg/kg/injection, schedule: Q04DX003 (ip), vehicle: saline with Tween-80 100 % of control | endpoint: median survival time, dose: 12.5 mg/kg/injection, schedule: Q04DX003 (ip), vehicle: saline with Tween-80 100 % of control | endpoint: median survival time, dose: 25.0 mg/kg/injection, schedule: Q04DX003 (ip), vehicle: saline with Tween-80 100 % of control

CS(=O)(=O)c1ccccn1
inactive: [10] 100 % of control | [11] 97 % of control | [12] 100 % of control

CCNc1nc(NC(C)C)nc(OC)n1
inactive: [2] 98 % of control | [3] 93 % of control | [7] 101 % of control | [4] 96 % of control | [8] 103 % of control

O=C(O)C(Br)CC(Br)C(=O)O (centres undefined)
inactive: endpoint: mean survival time, dose: 50.0 mg/kg/injection, schedule: Q01DX009 (ip), vehicle: saline 93 % of control | endpoint: mean survival time, dose: 100.0 mg/kg/injection, schedule: Q01DX009 (ip), vehicle: saline 93 % of control

CC12CCC(CC1CO)C2 (centres undefined)
inactive: [6] 88 % of control | [9] 87 % of control

CCCNC(=O)NO
inactive: endpoint: mean survival time, dose: 4.0 mg/kg/injection, schedule: Q03HX024 (ip), vehicle: other 97 % of control | endpoint: mean survival time, dose: 8.0 mg/kg/injection, schedule: Q03HX024 (ip), vehicle: other 97 % of control | endpoint: mean survival time, dose: 16.0 mg/kg/injection, schedule: Q03HX024 (ip), vehicle: other 96 % of control | endpoint: mean survival time, dose: 32.0 mg/kg/injection, schedule: Q03HX024 (ip), vehicle: other 98 % of control | endpoint: mean survival time, dose: 64.0 mg/kg/injection, schedule: Q03HX024 (ip), vehicle: other 97 % of control

CN(C=O)c1ccccc1C(=O)O
inactive: [13] 98 % of control | [3] 96 % of control | [14] 101 % of control | [4] 91 % of control | [15] 98 % of control | [5] 97 % of control

C=CC#N
inactive: endpoint: mean survival time, dose: 12.5 mg/kg/injection, schedule: Q04DX003 (ip), vehicle: saline with Tween-80 105 % of control | endpoint: mean survival time, dose: 25.0 mg/kg/injection, schedule: Q04DX003 (ip), vehicle: saline with Tween-80 102 % of control | endpoint: mean survival time, dose: 50.0 mg/kg/injection, schedule: Q04DX003 (ip), vehicle: saline with Tween-80 108 % of control
